Assay results as given in patent US20230065158A1, “OXABICYCLOHEPTANES FOR TREATMENT OF SMALL CELL LUNG CANCER” (Lixte Biotechnology, Inc., priority 2021, published 2023).
Where two headings read alike, the source gives them in different places.

What was measured:
H69 cells = assay: Cell Counting Kit-8 cytotoxicity and drug combination, H69
Procedure: A Mann-Whitney U test was used for comparison between the normal and SCLC samples. FIG. 1B: IHC for PP2A was conducted on TMA tissue sections and images were captured at 4× or 20× using a 3D-Histech PANNORAMIC SCAN whole slide scanner (3D-Histech, Budapest, Hungary). […] TMAs were scored in normal (n=24) and tumor (n=79) cores on a scale from 0 (no staining/no protein expression) to 3+(strong staining/high protein expression). FIG. 1C: Summary bar graph of the average PP2A subunit staining. IHC staining intensity of normal and tumor cores. […] FIG. 1D: In order to compare the expression of PP2A subunits A and C, cell lysates from seven SCLC cell lines and HBEC 3KT (non-malignant cell line) were subjected to western blotting. FIG. 1E: PP2A activity was determined using a serine/threonine phosphatase activity assay (Millipore) after 24 h exposure to cantharidin (10 μM) and LB-100 (5 μM). […] The Cell Counting Kit-8 assay detected cell H524 and H69 cell viability. […] FIGS. 1I-1K: Graphs depict the mean+SEM of percent viability for cells (n=3). Colony formation assays were used to count the ability of H524 (FIGS. 11 and 1J) and H69 (FIGS. 1K and 1L) cells to form colonies. […] Representative images of colonies at 4× are shown under the graph (n=2).*p<0.05; **, p<0.01; *** p<0.001; ****, p<0.0001. Experiments were repeated in triplicate and representative data are shown.

H524 cells = assay: Seahorse XF Cell Energy Phenotype Test; format: cell-based; conditions: LB100 2.5 μM
Procedure: FIGS. 5A-5F depict the effect of LB-100 on cell energy phenotype in SCLC cells. FIG. 5A: LB100 treatment (2.5 μM) induced metabolic switch in H524 cells. Cell energy phenotype was obtained by using XF Cell Energy Phenotype Reporter Generator. Empty squares indicate baseline energy phenotype, solid squares represent stressed energy phenotype measured after oligomycin/FCCP injection. FIGS. 5B and 5C: OCR and ECARin control (blue circles) and LB-100 (orange circles) H524 cells were measured overtime. (n=2, six different wells for each […]). FIG. 5D: Effect of LB-100 (10 μM) on H69 cell energy phenotype. FIGS. 5E and 5F: Effect of mitochondrial stressor on OCR and ECAR in H69 cells. Blue circles indicate control and orange circles show LB-100 treatment. (n=2, six technical replicates).
Next, we determined the effect of LB100 on ATP production in SCLC cells employing the Seahorse XF Cell Energy Phenotype Test. […] After drug treatment, we counted the number of cells and examined them for viability using exclusion of trypan blue as a readout. Cellular basal oxygen consumption rate (OCR) and extra-cellular acidification rate (ECAR) measurements were determined on a Seahorse XF96 analyzer. […]

MET = MET phosphorylation (Tyr 1234/1235) western blot after HGF stimulation; format: cell-based; conditions: HGF 10 min
From the text: FIGS. 4A-4F depict a reactome pathway analysis of PamGene PTKs and STKs after LB-100 treatment of H524 cells and Biolog phenotype MicroArray. […] Table includes 10 carbon sources affected by LB-100 (n=3). […] P<0.001 (***) for control (untreated cells) vs. LB-100. FIG. 4D: Amplex Red Glucose/Oxidase assay kit was used to measure glucose level in cell culture media. […] Glucose concentration detected in initial medium and counted as 100%. Subtracting final medium level of glucose from initial glucose medium concentration yielded % glucose in the medium with cells (n=3). Effect of LB-100 on MET phosphorylation. […] FIG. 4F: H524 cell lysates (control, LB-100, carboplatin and combination (LB-100/carboplatin) were analyzed by western blots to check phosphorylation status of MET at Ser985 and Tyr1234/1235. Actin was used as a loading control (n=3). […]
Whole cell lysates were prepared using RIPA lysis buffer and proteins were detected by immunoblotting using antibodies specific against PP2A A, PP2A C, Phospho-Histone H2AX (S139), MET, pMet (Tyr 1234/1235), Cleaved Caspase 3 and pan-Actin antibodies from CST (City of Industry, CA), Cleaved PARP1 (Santa Cruz Biotechnology, Dallas, Tex.) and pMET (Ser985) (ThermoFisher Scientific, Waltham, Mass.) were used as described previously (22).

H146 cells = conditions: human, 72 h
From the text: To determine specific cytotoxicity, we used Cell Counting Kit-8 (Dojindo Molecular Technologies, Rockville, Md.) as previously described (50).

Which results are given for `C[NH+]1CCN(C(=O)C2C(C(=O)O)[C@H]3CC[C@@H]2O3)CC1` (stereo in doubt) [LB-100, 3-[(4-Methylpiperazin-1-yl)carbonyl]-7-oxabicyclo[2.2.1]heptane-2-carboxylic acid]?
IC50 (H69 cells; Homo sapiens, NCI-H69, 72 h, read-out: Cytotoxicity IC50, H69, 72 hours): ~20 µM; IC50 (H69 cells; human, 72 h): 22.6 µM; basal OCR lower compared to untreated cells (H524 cells): 4 fold; level of HGF phosphorylation of MET (MET; H69, LB100 20 μM): significantly decreased; MET basal and HGF activated phosphorylation (MET; H524, LB100 5 μM): almost abrogated; IC50 (H146 cells): > 20 µM
